The source of these data is patent US9572820B2, “Methods of treating autophagy-associated disorders and related pharmaceutical compositions, diagnostics, screening techniques and kits” (priority 2011, dated 2017).

In this test the test system is IL-1β. Nature of the test: IL-1β secretion from LPS-pretreated BMMs (ELISA). Format: cell-based, murine. To be noted: nigericin, 100 nM bafilomycin A1, 1 h. As for the experimental part: FIG. 1X3. induction of autophagy enhances IL-1β secretion. (A) Atg5fl/fl Cre^− and Atg^5fl/fl Cre^+ bone marrow-derived macrophages (BMMs), pretreated overnight with 100 ng/ml LPS, were stimulated for 1 h with the inflammasome agonist nigericin ([…]) with (Starvation; EBSS) or without (Full; full medium) autophagic induction. Cell culture supernatants were assayed for murine IL-1β by ELISA. Data represent mean values±s.d. (nX3); *Po0.05. (B) LPS-pretreated Atg5fl/fl Cre^− and Atg^5fl/fl Cre^+ BMMs were stimulated with […] nigericin for 1 h in OptiMEM and the release of active caspase-1 and IL-1β was determined by immunoblotting. (C) As in (A), assayed for IL-18. Data represent mean values±s.d. (nX3); *Po0.05. (D) LPS-pretreated BMMs were exposed to alum ([…]) for 1 h with or without autophagic induction by starvation. Secreted IL-1β was measured as in (A). Data represent mean values±s.d. (nX3); *Po0.05. (E) LPS-pretreated BMMs were exposed to silica ([…]) for 1 h with or without autophagic induction by starvation. Secreted IL-1β was measured as in (A). Data represent mean values±s.d. (nX3); *Po0.05. (F) BMMs were transfected with scramble (Scr) control siRNA or siRNAs against ASC and NLRP3. After 48 h following transfection, cells were treated overnight with LPS and subjected to nigericin ([…]) and starvation for 1 h. Data represent mean values±s.d. (nX3); *Po0.05. (G) Immunoblot analysis of ASC and NLRP3 knockdowns. (H) BMMs were transfected with scramble
FIG. 2X3 Autophagic pathway progression promotes secretion of inflammasome substrates. (A, B) LPS-pretreated BMMs were treated with […] nigericin (Nig) and 100 nM bafilomycin A1 (Baf) with (Starvation) or without (Full) autophagic induction for 1 h and secreted IL-1β (A) and IL-18 (B) were measured. Data represent mean values+s.d. (nX3); *Po0.05. (C) LPS-pretreated BMMs were treated with […] of silica and 100 nM bafilomycin A1 (Baf) with (Starvation) or without (Full) autophagic induction for 1 h and secreted IL-1β were measured. Data represent mean values±s.d. (nX3); *Po0.05. (D) Colocalization of cathepsin B with the basal autophagic machinery factor LC3 and IL-1b. Fluorescence; LC3 (green, Alexa488), IL-1β (red, Alexa568), and cathepsin B (blue, Alexa633). BMMs from GFP-LC3 knockin mice were treated with LPS and then analysed for immunofluorescence. (E) Colocalization line tracing analysis from images in (D). (F) LPS-pretreated BMMs were treated with […] nigericin and cathepsin B inhibitor CA-074 Me […] , with (Starvation) or without (Full) autophagic induction, for 1 h and secreted IL-1β was measured. […] (G) LPS-pretreated Atg^5fl/fl Cr^+ and Atg^5fl/fl Cre^− BMMs were stimulated with […] nigericin for 1 h in OptiMEM and release of cathepsin B was determined by immunoblotting. […]
For orientation: ELISA stands for enzyme-linked immunosorbent assay.

On to `CO/C1=C\C(C)=C\[C@@H](C)[C@@H](O)[C@@H](C)C/C(C)=C/C=C/[C@H](OC)[C@@H]([C@@H](C)[C@@H](O)[C@H](C)[C@@]2(O)C[C@@H](O)[C@H](C)[C@@H](C(C)C)O2)OC1=O` [bafilomycin A1], for which the IL-1β secretion entry runs as follows: (basal autophagy only (full medium)) “no change”; (starvation) “decreased IL-1β secretion”.
